In ChEMBL document CHEMBL3585326, “Discovery of potent carbonic anhydrase and acetylcholine esterase inhibitors: novel sulfamoylcarbamates and sulfamides derived from acetophenones” (Bioorg Med Chem, 2015):

Target: Acetylcholinesterase (Homo sapiens, UniProt P22303)
Sequence (P22303 whole entry): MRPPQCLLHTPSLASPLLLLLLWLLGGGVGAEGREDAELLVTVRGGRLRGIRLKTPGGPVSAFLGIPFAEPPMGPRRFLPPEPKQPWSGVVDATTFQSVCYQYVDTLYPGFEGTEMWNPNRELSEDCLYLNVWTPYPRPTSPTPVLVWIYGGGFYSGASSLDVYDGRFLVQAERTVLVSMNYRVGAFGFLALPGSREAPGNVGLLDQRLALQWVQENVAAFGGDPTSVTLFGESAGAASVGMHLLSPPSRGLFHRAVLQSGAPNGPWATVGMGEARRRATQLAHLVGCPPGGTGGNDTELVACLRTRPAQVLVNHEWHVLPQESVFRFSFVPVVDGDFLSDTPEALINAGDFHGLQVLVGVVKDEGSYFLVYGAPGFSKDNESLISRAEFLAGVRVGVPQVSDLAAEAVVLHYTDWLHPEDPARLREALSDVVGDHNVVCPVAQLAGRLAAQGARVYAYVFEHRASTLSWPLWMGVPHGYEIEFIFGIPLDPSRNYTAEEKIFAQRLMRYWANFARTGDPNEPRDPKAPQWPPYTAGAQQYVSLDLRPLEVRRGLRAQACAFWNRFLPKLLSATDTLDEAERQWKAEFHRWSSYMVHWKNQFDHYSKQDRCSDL
Description: Inhibition of acetylcholinesterase (unknown origin) assessed as AChI hydrolysis using AChI and DTNB as substrate by Ellman's method

| SMILES | IC50 | Ki |
| --- | --- | --- |
| COc1cccc(OC)c1C(C)NS(N)(=O)=O (stereo not given) | 0.0269 nM | 0.0081 nM |
| COc1ccc(C(C)NS(N)(=O)=O)cc1OC (stereo not given) | 0.0269 nM | 0.0049 nM |
| COc1ccccc1C(C)NS(=O)(=O)NC(=O)OCc1ccccc1 (stereo not given) | 0.0269 nM | 0.0056 nM |
| COc1ccc(C(C)NS(N)(=O)=O)cc1 (stereo not given) | 0.0269 nM | 0.0063 nM |
| COc1ccc(C(C)NS(=O)(=O)NC(=O)OCc2ccccc2)cc1 (stereo not given) | 0.0269 nM | 0.0045 nM |
| COc1ccc(OC)c(C(C)NS(=O)(=O)NC(=O)OCc2ccccc2)c1 (stereo not given) | 0.0269 nM | 0.0229 nM |
| COc1ccccc1C(C)NS(N)(=O)=O (stereo not given) | 0.0269 nM | 0.0382 nM |
| COc1ccc(OC)c(C(C)NS(N)(=O)=O)c1 (stereo not given) | 0.0269 nM | 0.0056 nM |
| COc1cccc(OC)c1C(C)NS(=O)(=O)NC(=O)OCc1ccccc1 (stereo not given) | 0.0269 nM | 0.0105 nM |
| COc1ccc(C(C)NS(=O)(=O)NC(=O)OCc2ccccc2)cc1OC (stereo not given) | 0.0269 nM | 0.0051 nM |
